The test system of the test is Eschericia coli (E. coli) strain ATCC25922. Briefly: Standard microdilution assay, MIC against E. coli ATCC25922. As to conditions: Escherichia coli; E. coli strain ATCC25922, standard microdilution assay; cutoff 16 micrograms/mL; read-out: MIC E. Coli. The format is cell-based. A digest of the protocol: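 MIC determined by broth microdilution following CLSI protocols, with reference strains run in parallel for quality control. Activity scored +/− at a cutoff of 16 micrograms/mL.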
Turning to `C[C@H](N)CCCc1cc(OC(F)(F)F)c(F)c(-c2cc3cn(-c4ccc([C@H](N)CCCCNC(=N)N)cc4)c(=O)nc3[nH]2)c1` [Compound 234], the MIC was below 16 µg/mL.
In the case of `C[C@H](N)CCCc1cc(-c2cc3cn(-c4ccc([C@H](N)CCCCNC(=N)N)cc4)c(=O)nc3[nH]2)cc(C(F)(F)F)c1` [Compound 235] it was below 16 µg/mL; in that of `C=C[C@H](CCN[C@@H](C)c1ccc(-n2cc3cc(-c4cc(CCC[C@H](C)N)cc(Cl)c4F)[nH]c3nc2=O)cc1)NC(=N)N` [Compound 236], below 16 µg/mL; in that of `C=C[C@H](CCN[C@@H](C)c1ccc(-n2cc3cc(-c4cc(CCC[C@H](C)N)cc(OC(F)(F)F)c4F)[nH]c3nc2=O)cc1)NC(=N)N` [Compound 237], below 16 µg/mL.
`C=C[C@H](CCNCc1ccc(-n2cc3cc(-c4cc(CCC[C@H](C)N)cc(OC(F)(F)F)c4F)[nH]c3nc2=O)cc1)NC(=N)N` [Compound 238]: the MIC was below 16 µg/mL.
In the case of `C[C@H](N)CCCc1cc(Cl)c(F)c(-c2cc3cn(-c4ccc([C@H](C)NCC[C@@H](CCCO)NC(=N)N)cc4)c(=O)nc3[nH]2)c1` [Compound 239] it was below 16 µg/mL.
As for `C[C@H](N)CCCc1cc(OC(F)(F)F)c(F)c(-c2cc3cn(-c4ccc([C@H](C)NCC[C@@H](CCCO)NC(=N)N)cc4)c(=O)nc3[nH]2)c1` [Compound 240], the figure is below 16 µg/mL.
As for `C[C@H](N)CCCc1cc(Cl)c(F)c(C#Cc2cn(-c3ccc([C@H](C)NCCCNC(=N)N)cc3)c(=O)nc2N)c1` [Compound 241], the figure is below 16 µg/mL.
`C[C@H](NCCCNC(=N)N)c1ccc(-n2cc3cc(-c4cc(CCC[C@@H](N)CO)cc(C(F)(F)F)c4)[nH]c3nc2=O)cc1` [Compound 242]: the MIC is below 16 µg/mL.
In the case of `C[C@H](NCCCNC(=N)N)c1ccc(-n2cc3cc(-c4cc(CCC[C@@H](N)CO)cc(OC(F)(F)F)c4F)[nH]c3nc2=O)cc1` [Compound 243] it was below 16 µg/mL; in that of `C[C@H](N)CCCc1cc(Cl)c(F)c(-c2cc3cn(-c4ccc([C@H](C)NCC[C@H](CCO)NC(=N)N)cc4)c(=O)nc3[nH]2)c1` [Compound 244], below 16 µg/mL; in that of `C[C@H](N)CCCc1cc(OC(F)(F)F)c(F)c(-c2cc3cn(-c4ccc([C@H](C)NCC[C@H](CCO)NC(=N)N)cc4)c(=O)nc3[nH]2)c1` [Compound 245], below 16 µg/mL.
As for `C[C@H](N)CCCc1cc(Cl)c(F)c(-c2cc3c([nH]2)NC(=O)N(c2ccc([C@H](C)NCCCNC(=N)N)cc2)C3)c1` [Compound 246], the figure is below 16 µg/mL; as for `C[C@H](N)CCCc1cc(Cl)c(F)c(-c2cc3cn(-c4ccc([C@H](C)NCC[C@@H](CCO)NC(=N)N)cc4)c(=O)nc3[nH]2)c1` [Compound 247], below 16 µg/mL.
In the case of `C[C@H](N)CCCc1cc(OC(F)(F)F)c(F)c(-c2cc3cn(-c4ccc([C@H](C)NCC[C@@H](CCO)NC(=N)N)cc4)c(=O)nc3[nH]2)c1` [Compound 248] it was below 16 µg/mL; in that of `C[C@H](N)CCCc1cc(Cl)c(F)c(-c2cc3cn(-c4ccc(CN[C@H](CO)CCNC(=N)N)cc4)c(=O)nc3[nH]2)c1` [Compound 249], below 16 µg/mL; in that of `C[C@H](N)CCCc1cc(OC(F)(F)F)c(F)c(-c2cc3cn(-c4ccc(CN[C@H](CO)CCNC(=N)N)cc4)c(=O)nc3[nH]2)c1` [Compound 250], below 16 µg/mL.
Consider `C=CC[C@H](CCN[C@@H](C)c1ccc(-n2cc3cc(-c4cc(CCC[C@H](C)N)cc(Cl)c4F)[nH]c3nc2=O)cc1)NC(=N)N` [Compound 251], for which the MIC was below 16 µg/mL.
As for `C=CC[C@@H](CCN[C@@H](C)c1ccc(-n2cc3cc(-c4cc(CCC[C@H](C)N)cc(Cl)c4F)[nH]c3nc2=O)cc1)NC(=N)N` [Compound 252], the figure is below 16 µg/mL; as for `C[C@H](N)CCCc1cc(Cl)c(F)c(-c2cc3cn(-c4ccc([C@H](N)C(=O)NCCNC(=N)N)cc4)c(=O)nc3[nH]2)c1` [Compound 253], below 16 µg/mL; as for `C[C@H](N)CCCc1cc(Cl)c(F)c(-c2cc3cn(-c4ccc([C@H](N)C(=O)NCCN)cc4)c(=O)nc3[nH]2)c1` [Compound 254], below 16 µg/mL.
In the case of `C[C@H](N)CCCc1cc(OC(F)(F)F)c(F)c(-c2cc3cn(-c4ccc([C@H](N)C(=O)NCCNC(=N)N)cc4)c(=O)nc3[nH]2)c1` [Compound 255] it was below 16 µg/mL; in that of `C[C@H](N)CCCc1cc(Cl)c(F)c(-c2cc3cn(-c4ccc([C@@H](N)C(=O)NCCNC(=N)N)cc4)c(=O)nc3[nH]2)c1` [Compound 256], below 16 µg/mL; in that of `C[C@H](N)CCCc1cc(OC(F)(F)F)c(F)c(-c2cc3cn(-c4ccc([C@@H](N)C(=O)NCCNC(=N)N)cc4)c(=O)nc3[nH]2)c1` [Compound 257], below 16 µg/mL.
In the case of `C[C@H](N)CCCc1cc(Cl)c(F)c(-c2cc3cn(-c4ccc([C@H](C)NCC[C@@H](CCc5ccccc5)NC(=N)N)cc4)c(=O)nc3[nH]2)c1` [Compound 258] it was below 16 µg/mL; in that of `C[C@H](N)CCCc1cc(OC(F)(F)F)c(F)c(-c2cc3cn(-c4ccc([C@H](C)NCC[C@@H](CCc5ccccc5)NC(=N)N)cc4)c(=O)nc3[nH]2)c1` [Compound 259], below 16 µg/mL.
On to `C=CC[C@H](CCN[C@@H](C)c1ccc(-n2cc3cc(-c4cc(CCC[C@H](C)N)cc(OC(F)(F)F)c4F)[nH]c3nc2=O)cc1)NC(=N)N` [Compound 260], for which the MIC is below 16 µg/mL.
As for `C=CC[C@@H](CCN[C@@H](C)c1ccc(-n2cc3cc(-c4cc(CCC[C@H](C)N)cc(OC(F)(F)F)c4F)[nH]c3nc2=O)cc1)NC(=N)N` [Compound 261], the figure is below 16 µg/mL.
In the case of `C[C@H](N)CCCc1cc(Cl)c(F)c(-c2cc3cn(-c4ccc([C@H](C)NCC[C@H](CO)NC(=N)N)cc4)c(=O)nc3[nH]2)c1` [Compound 262] it was below 16 µg/mL; in that of `C[C@H](N)CCCc1cc(OC(F)(F)F)c(F)c(-c2cc3cn(-c4ccc([C@H](C)NCC[C@H](CO)NC(=N)N)cc4)c(=O)nc3[nH]2)c1` [Compound 263], below 16 µg/mL.
In the case of `C[C@H](N)CCCc1cc(Cl)c(F)c(-c2cc3cn(-c4ccc([C@H](C)NCC[C@@H](CO)NC(=N)N)cc4)c(=O)nc3[nH]2)c1` [Compound 264] it was below 16 µg/mL; in that of `C[C@H](N)CCCc1cc(OC(F)(F)F)c(F)c(-c2cc3cn(-c4ccc([C@H](C)NCC[C@@H](CO)NC(=N)N)cc4)c(=O)nc3[nH]2)c1` [Compound 265], below 16 µg/mL.
Regarding `C[C@H](N)CCCc1cc(Cl)c(F)c(-c2cc3cn(-c4ccc([C@H](C)NCC[C@@H](Cc5c[nH]nn5)NC(=N)N)cc4)c(=O)nc3[nH]2)c1` [Compound 266], the MIC was below 16 µg/mL.
As for `C[C@H](N)CCCc1cc(Cl)c(F)c(-c2cc3cn(-c4ccc([C@H](C)NCC[C@H](Cc5c[nH]nn5)NC(=N)N)cc4)c(=O)nc3[nH]2)c1` [Compound 267], the figure is below 16 µg/mL.
In the case of `C[C@H](N)CCCc1cc(OC(F)(F)F)c(F)c(-c2cc3cn(-c4ccc([C@H](C)NCC[C@@H](Cc5c[nH]nn5)NC(=N)N)cc4)c(=O)nc3[nH]2)c1` [Compound 268] it was below 16 µg/mL.
As for `C[C@H](N)CCCc1cc(OC(F)(F)F)c(F)c(-c2cc3cn(-c4ccc([C@H](C)NCC[C@H](Cc5c[nH]nn5)NC(=N)N)cc4)c(=O)nc3[nH]2)c1` [Compound 269], the figure is below 16 µg/mL; as for `C[C@H](N)CCCc1cc(Cl)c(F)c(-c2cc3cn(-c4ccc([C@H](C)NCCC(CC(O)CO)NC(=N)N)cc4)c(=O)nc3[nH]2)c1` (stereo partly shown) [Compound 270], below 16 µg/mL.

By MIC is commonly meant the least concentration at which growth counts as inhibited.
